Assay results as given in patent US9828375B2, “4-position substituted pyrazolopyrimidine derivative, and use thereof in drug preparation” (Guangxi Wuzhou Pharmaceuticals (Group) Co., Ltd., priority 2012, dated 2017).
Like-named read-outs stand apart in the source and are kept apart here.

Key:
[1] = target: PDGFRβ (Homo sapiens, UniProt P09619); test: Kinase inhibition activity test, isotope labeling: PDGFRβ; format: biochemical; conditions: ATP 200 μM; read-out: PDGFRβ IC50 value (inhibitory activity value)
PDGFRβ, sequence (P09619 33-1106): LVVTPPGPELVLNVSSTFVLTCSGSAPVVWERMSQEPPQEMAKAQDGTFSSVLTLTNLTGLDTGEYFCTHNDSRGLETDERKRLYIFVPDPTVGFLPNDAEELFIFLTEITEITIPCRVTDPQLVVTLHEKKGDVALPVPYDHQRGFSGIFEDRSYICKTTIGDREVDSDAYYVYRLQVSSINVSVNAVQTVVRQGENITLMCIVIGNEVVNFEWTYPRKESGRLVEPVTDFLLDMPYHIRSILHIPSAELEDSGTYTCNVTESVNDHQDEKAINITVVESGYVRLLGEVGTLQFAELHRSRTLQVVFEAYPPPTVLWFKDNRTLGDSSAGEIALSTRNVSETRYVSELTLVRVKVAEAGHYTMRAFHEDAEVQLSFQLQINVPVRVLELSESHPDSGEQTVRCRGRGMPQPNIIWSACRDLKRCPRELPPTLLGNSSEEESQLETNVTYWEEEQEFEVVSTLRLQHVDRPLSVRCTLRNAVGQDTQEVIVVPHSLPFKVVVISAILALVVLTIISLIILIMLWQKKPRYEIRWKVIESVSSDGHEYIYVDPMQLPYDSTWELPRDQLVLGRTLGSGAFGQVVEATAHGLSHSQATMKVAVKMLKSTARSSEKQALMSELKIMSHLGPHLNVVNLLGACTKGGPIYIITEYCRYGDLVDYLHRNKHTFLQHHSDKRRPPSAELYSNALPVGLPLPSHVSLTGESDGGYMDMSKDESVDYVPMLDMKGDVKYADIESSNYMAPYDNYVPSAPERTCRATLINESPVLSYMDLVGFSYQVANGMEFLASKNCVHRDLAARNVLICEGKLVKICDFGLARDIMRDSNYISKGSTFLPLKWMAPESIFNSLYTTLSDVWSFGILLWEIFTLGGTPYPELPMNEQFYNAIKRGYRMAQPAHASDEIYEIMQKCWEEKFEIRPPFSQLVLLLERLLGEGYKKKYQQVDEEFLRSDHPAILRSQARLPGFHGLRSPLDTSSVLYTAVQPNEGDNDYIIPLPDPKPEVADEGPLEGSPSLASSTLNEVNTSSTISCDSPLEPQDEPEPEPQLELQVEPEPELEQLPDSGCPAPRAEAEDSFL
Experimental: (§1) The purpose of this experiment was to test the inhibitory activity of the compound of the invention for in vitro kinase with the isotope labeling method (the γ phosphate group on ATP was labeled). In this experiment, the in vitro activity inhibition of such kinases as FLT3, VEGFR2, FLT1, FLT4, RET, c-RAF, B-RAF, c-KIT, PDGFα, PDGFβ, FGFR2, FGFR1, EphA2, EphB2, SRC, ABL, ALK and Met was tested respectively. Staurosporine was reference molecule (or referred to as positive control). The kinase inhibition activity of the test compound was expressed by half-inhibitory concentration (IC50) or the kinase activity inhibition rate of the test compound at a concentration of 10 μM. The IC50 value could be obtained by calculating the kinase activity inhibition rate of the test compound at different concentrations.
(§2) 20 mM 3-(N-morpholinyl)propanesulfonic acid (MOPS); 1 mM ethylenediaminetetraacetic acid (EDTA), 0.01% Brij 35 (Brij-35), 5% glycerol, 0.1% mercaptoethanol, 1 mg/mL bovine serum albumin (BSA), 10 mM manganous dichloride solution (MnCl2), 0.1 mg/mL glutamic acid/tyrosine (4:1) polypeptide (poly(Glu, Tyr)4:1), 50 μM EAIYAAPFAKKK (substrate of FLT3), 0.33 mg/mL myelin basic protein (substrate of VEGFR2), 250 μM KKKSPGEYVNIEFG (substrate of FLT1(h)), 500 μM GGEEEEYFELVKKKK (substrate of FLT4(h)), 250 μM KKKSPGEYVNIEFG (substrate of RET), 0.66 mg/mL myelin basic protein (substrate of C-RAF), 250 μM GGMEDIYFEFMGGKKK (substrate of c-Kit), 250 μM GGMEDIYFEFMGGKKK (substrate of PDGFα), 250 μM KKKSPGEYVNIEFG (substrate of FGFR1), […] GGEEEEYFELVKKKK (substrate of SRC), 50 μM EAIYAAPFAKKK (substrate of ABL), 250 μM KKKSPGEYVNIEFG (substrate of ALK), 250 μM KKKSPGEYVNIEFG (substrate of Met(h)), 10 mM magnesium acetate and γ-^33 P-ATP solution, stop buffer (3% phosphate buffer), washing buffer (75 mM phosphate solution), methanol, Filtermat A membrane, FLT3, VEGFR2, FLT3, VEGFR2, FLT1, FLT4, RET, c-RAF, B-RAF, c-KIT, PDGFRα, PDGFRβ, FGFR2, FGFR1, EphA2, EphB2, SRC, ABL, ALK, Met and other kinases, and the test compounds.
(§3) Buffers (8 mM MOPS with pH value of 7.0, 0.2 mM EDTA and 10 mM MnCl2), (5-10 mU) kinases to be tested (FLT3, VEGFR2, FLT1, FLT4, RET, c-RAF, B-RAF, c-KIT, PDGFRα, PDGFRβ, FGFR2, FGFR1, EphA2, EphB2, SRC, ABL, ALK and Met), substrates of kinases to be tested (refer to experimental materials), 10 mM magnesium acetate and γ-^33 P-ATP solution, and test compounds at different concentrations were added to a reaction tube orderly. […] Reaction was terminated with 5 μL 3% phosphate buffer finally, and 10 μL reaction solution was titrated to the Filtermat A membrane; solution was washed for 3 times with 75 mM phosphate solution with each time lasting 5 minutes, and then washed once with methanol. […]

[2] = target: FLT4 (Homo sapiens, UniProt P35916); test: Kinase inhibition activity test, isotope labeling: FLT4; format: biochemical; conditions: ATP 200 μM; read-out: FLT4 IC50 value (inhibitory activity value)
FLT4, sequence (P35916 25-1363): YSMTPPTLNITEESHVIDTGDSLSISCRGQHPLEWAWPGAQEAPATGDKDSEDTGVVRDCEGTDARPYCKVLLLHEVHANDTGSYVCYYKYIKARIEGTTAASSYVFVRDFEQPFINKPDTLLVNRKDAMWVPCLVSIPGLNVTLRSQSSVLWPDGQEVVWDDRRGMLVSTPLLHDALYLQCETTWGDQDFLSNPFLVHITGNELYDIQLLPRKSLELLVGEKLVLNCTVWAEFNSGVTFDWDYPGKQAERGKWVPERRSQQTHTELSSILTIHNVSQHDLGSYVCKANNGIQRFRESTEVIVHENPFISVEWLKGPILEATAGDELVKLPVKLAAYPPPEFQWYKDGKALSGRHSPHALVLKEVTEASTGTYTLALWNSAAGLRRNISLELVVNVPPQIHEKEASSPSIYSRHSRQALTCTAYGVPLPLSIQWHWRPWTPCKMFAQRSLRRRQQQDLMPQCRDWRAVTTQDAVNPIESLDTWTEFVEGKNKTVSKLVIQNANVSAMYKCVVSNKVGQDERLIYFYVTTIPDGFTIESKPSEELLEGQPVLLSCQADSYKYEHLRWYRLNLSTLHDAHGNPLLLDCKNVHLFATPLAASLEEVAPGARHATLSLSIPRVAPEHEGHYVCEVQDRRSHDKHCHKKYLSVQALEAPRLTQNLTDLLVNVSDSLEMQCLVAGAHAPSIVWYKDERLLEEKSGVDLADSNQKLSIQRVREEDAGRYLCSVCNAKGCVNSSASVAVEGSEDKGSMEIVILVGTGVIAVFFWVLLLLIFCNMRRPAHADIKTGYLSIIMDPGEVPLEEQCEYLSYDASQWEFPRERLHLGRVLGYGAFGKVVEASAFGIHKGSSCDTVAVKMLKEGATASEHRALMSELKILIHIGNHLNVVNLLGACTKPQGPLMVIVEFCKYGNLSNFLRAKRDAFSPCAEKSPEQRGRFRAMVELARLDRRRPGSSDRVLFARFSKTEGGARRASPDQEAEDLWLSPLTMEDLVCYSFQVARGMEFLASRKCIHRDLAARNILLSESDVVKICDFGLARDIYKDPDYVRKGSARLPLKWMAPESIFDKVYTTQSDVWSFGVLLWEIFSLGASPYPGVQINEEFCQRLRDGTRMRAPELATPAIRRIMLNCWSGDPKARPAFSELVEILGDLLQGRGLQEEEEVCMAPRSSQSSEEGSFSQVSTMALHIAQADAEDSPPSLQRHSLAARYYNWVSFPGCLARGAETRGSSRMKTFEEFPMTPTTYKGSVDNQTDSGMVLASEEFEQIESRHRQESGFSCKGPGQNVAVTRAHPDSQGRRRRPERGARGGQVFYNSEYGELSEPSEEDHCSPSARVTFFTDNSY
Experimental: as §1, §2, §3

[3] = target: FGFR1 (Homo sapiens, UniProt P11362); test: Kinase inhibition activity test, isotope labeling: FGFR1; format: biochemical; conditions: ATP 200 μM; read-out: FGFR1 IC50 value (inhibitory activity value)
FGFR1, sequence (P11362 22-822): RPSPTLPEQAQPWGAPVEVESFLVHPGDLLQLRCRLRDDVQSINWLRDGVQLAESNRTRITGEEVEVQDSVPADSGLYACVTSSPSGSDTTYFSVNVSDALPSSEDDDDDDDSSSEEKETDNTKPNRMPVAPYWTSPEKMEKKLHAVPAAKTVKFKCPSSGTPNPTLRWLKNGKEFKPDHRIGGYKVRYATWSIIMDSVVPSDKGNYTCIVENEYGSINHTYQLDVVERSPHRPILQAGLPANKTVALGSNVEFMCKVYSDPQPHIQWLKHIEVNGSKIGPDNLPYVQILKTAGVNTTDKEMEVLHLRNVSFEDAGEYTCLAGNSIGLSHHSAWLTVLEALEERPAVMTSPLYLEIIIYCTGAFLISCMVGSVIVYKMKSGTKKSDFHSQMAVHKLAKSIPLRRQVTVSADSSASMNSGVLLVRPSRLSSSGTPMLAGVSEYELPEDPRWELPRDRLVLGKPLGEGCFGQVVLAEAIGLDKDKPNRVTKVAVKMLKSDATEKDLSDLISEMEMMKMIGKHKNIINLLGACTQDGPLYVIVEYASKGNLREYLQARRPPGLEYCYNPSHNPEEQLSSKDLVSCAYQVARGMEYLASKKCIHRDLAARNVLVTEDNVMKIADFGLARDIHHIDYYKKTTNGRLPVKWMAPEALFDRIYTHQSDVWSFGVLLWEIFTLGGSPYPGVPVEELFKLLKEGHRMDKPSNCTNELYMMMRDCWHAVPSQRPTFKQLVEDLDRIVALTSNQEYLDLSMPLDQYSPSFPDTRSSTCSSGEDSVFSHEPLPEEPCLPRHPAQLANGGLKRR
Experimental: as §1, §2, §3

[4] = system: human leukemia cell line MV4-11; conditions: for in vivo tumor growth inhibition effect: oral intragastric q.d., MV4-11 tumors 400-500 mm^3 at start; for inhibition effect compared with positive control sorafenib: sorafenib 3 mg/kg q.d., MV4-11 model
Experimental: The cell line used was human leukemia cell line MV4-11. The drug (Sorafenib) undergoing anti-leukemia clinical trial was used as the positive control.
NOD-SCID mice at age of 6 to 8 weeks were used, and MV4-11 cells were inoculated at the subcutaneous posterior ribs of the mice at a concentration of 1×10^7/0.1 mL/mouse; after the tumors grew to 400-500 mm^3 (for about 20 days), mice (n=6) were grouped and subject to oral intragastric administration.
Observation targets: Mouse weight and long and short diameters of tumor were measured every 3 days, and tumor volume (length×width^2×0.52) was calculated to observe for diarrhea, convulsion, rash, significant weight loss and other reactions.

Structure (SMILES) | IC50 [1] | IC50 [2] | IC50 [3] | in vivo tumor growth inhibition effect ([4]; daily dose of 3 mg/kg or above) | inhibition effect compared with positive control sorafenib [4] | in vivo tumor growth inhibition effect ([4]; daily dose of 1 mg/kg)
O=C(Nc1ccc(Oc2ncnc3[nH]ncc23)cc1)Nc1ccc(Cl)c(C(F)(F)F)c1 [4a-2] | 0.408 µM | < 10 µM | < 10 µM | obviously inhibit tumor growth or extinct tumor completely | superior to the positive control (sorafenib) | 
O=C(Nc1ccc(Oc2ncnc3[nH]ncc23)cc1)Nc1cccc(C(F)(F)F)c1 [4a-6] | 0.184 µM | 0.005 µM | 2.25 µM |  |  | 
CC(C)(C)c1cc(NC(=O)Nc2ccc(Oc3ncnc4[nH]ncc34)cc2)on1 [4a-25] | < 10 µM | < 10 µM | < 10 µM |  |  | 
CC(C)(C)c1cc(NC(=O)Nc2ccc(Oc3ncnc4[nH]ncc34)c(F)c2)no1 [4a-31] | < 10 µM | < 10 µM | < 10 µM | extinct tumor completely | superior to the positive control (sorafenib) | obviously inhibit tumor growth
